Strand notation (5' to 3'): a small letter for the sugar, then the base; units joined by * are phosphorothioate-linked, units joined directly phosphodiester-linked; [ ] holds rarer units or linkages, { } end groups; capitals alone tell only the bases. k = constrained ethyl (cEt); [5mC] = 5-methylcytosine; d = 2'-deoxy (DNA)
How the values were obtained:
SCC-4 cells = assay: Cell proliferation assay in SCC-4 cells, CellTiter-Glo (Example 39); assay type: cell-based, human; conditions: free uptake, approximately 144 hours
Method: Modified oligonucleotides described in the studies above were tested at various doses in tongue squamous cell carcinoma cell line SCC 4. A control oligonucleotide 792169, described herein above, was also tested.
Cultured SCC-4 cells at a density of 1000 cells/well were treated using free uptake with modified oligonucleotides diluted to concentrations described in the tables below. After approximately 144 hours, cell proliferation was measured using the luminescent cell viability CellTiter-Glo® 2.0 Assay (Promega). Results are presented in the tables below as percent control of the amount of luminescence in samples treated with modified oligonucleotides relative to untreated control cells (% UTC).

Yap1 mRNA [1] = assay: Yap1 mRNA in SCC-25 cells, RNA analysis (Example 42); assay type: cell-based, human; conditions: free uptake, approximately 48 hours
Method: Modified oligonucleotides described in the studies above were tested at various doses in tongue squamous cell carcinoma cell line SCC-25. A control oligonucleotide 792169, described herein above, was also tested.
Cultured SCC-25 cells at a density of 5000 cells per well were treated using free uptake with modified oligonucleotides diluted to concentrations described in the tables below. After approximately 48 hours, Yap1 mRNA levels were measured as previously described using the Human Yap1 primer-probe set RTS4814. Yap1 mRNA levels were normalized to actin-beta content, as measured by primer probe set RTS5002. Results are presented in the tables below as percent control of the amount of Yap1 mRNA relative to untreated control cells (% UTC).

Yap1 mRNA [2] = assay: Yap1 mRNA in SNU-1214 cells, RNA analysis (Example 46); assay type: cell-based, human; conditions: free uptake, approximately 48 hours
Method: Modified oligonucleotides described in the studies above were tested at various doses in laryngeal squamous cell carcinoma cell line […]. A control oligonucleotide 792169, described herein above, was also tested.
Cultured SNU-1214 cells at a density of 5000 cells per well were treated using free uptake with modified oligonucleotides diluted to concentrations described in the tables below. After approximately 48 hours, Yap1 mRNA levels were measured as previously described using the Human Yap1 primer-probe set RTS4814. Yap1 mRNA levels were normalized to actin-beta content, as measured by primer probe set RTS5002. Results are presented in the tables below as percent control of the amount of Yap1 mRNA relative to untreated control cells (% UTC).

UPCI:SCC090 cells = assay: Cell proliferation assay in UPCI:SCC090 cells, CellTiter-Glo (Example 47); assay type: cell-based, human; conditions: free uptake, approximately 144 hours
Method: Modified oligonucleotides described in the studies above were tested at various doses in tongue squamous cell carcinoma cell line UPCI:SCC090. A control oligonucleotide 792169, described herein above, was also tested.
Cultured UPCI:SCC090 cells at a density of 1000 cells/well were treated using free uptake with modified oligonucleotides diluted to concentrations described in the tables below. After approximately 144 hours, cell proliferation was measured using the luminescent cell viability CellTiter-Glo® 2.0 Assay (Promega). Results are presented in the tables below as percent control of the amount of luminescence in samples treated with modified oligonucleotides relative to untreated control cells (% UTC).

[3] = Tolerability in Sprague-Dawley rats, body and organ weights (Example 20); assay type: in vivo; conditions: male Sprague-Dawley rats, 50 mg/kg s.c. weekly for 6 weeks (7 doses); for Kidney weight / Liver weight / Spleen weight: end of study; for body weight: terminal, prior to necropsy
Method: Terminal body weight was measured prior to necropsy. Ionis oligonucleotides that caused any changes in organ weights outside the expected range for modified oligonucleotides were excluded from further studies.

Yap1 mRNA [4] = assay: Yap1 mRNA levels in CAL33 xenograft tumors (Example 29); assay type: in vivo, human; conditions: CAL33 xenografts, 50 mg/kg twice weekly for two weeks, relative to PBS treated animals
Method: A xenograft tumor model was used to evaluate activity of modified oligonucleotides targeted to human Yap1. One million CAL33 cells in 30% matrigel were implanted subcutaneously into the flanks of female CrTac:NCr-Foxnlnu (Taconic) mice. When tumors reached an average volume of 100 mm^3, approximately two weeks post-implantation, groups of eight mice were administered at 50 mg/kg twice weekly with modified oligonucleotides for two weeks. ION 792169 was administered as a control.
Tumor samples were collected for measurement of Yap1 mRNA levels by RT-qPCR. Yap1 mRNA levels were measured as previously described using the Human Yap1 primer-probe set RTS4814. Yap1 mRNA levels were normalized to actin-beta content, as measured by primer probe set RTS5002. Results are presented in the tables below as percent control of the amount of Yap1 mRNA relative to PBS treated animals (% control).

Yap1 mRNA [5] = assay: Yap1 mRNA levels in SNU449 xenograft tumors (first Example 30); assay type: in vivo, human; conditions: SNU449 xenograft mice, 50 mg/kg, tumors collected day 119 post implantation, relative to PBS
Method: Modified oligonucleotides described in the studies above were tested in a hepatocellular carcinoma SNU449 xenograft tumor model. A control oligonucleotide 792169 was also tested.
Five million SNU449 cells in 30% matrigel were implanted subcutaneously into the fatpads of female NOD.Cg-Prkdcscid II2rgtmlWjl/SzJ mice (from Jackson Laboratory) at 4-6 weeks of age. 43 days post implantation (when tumors had reached approximately 100 mm^3 in size), groups of eight mice each were administered with 50 mg/kg modified oligonucleotide daily for 10 days (loading dose), following which they were administered with 50 mg/kg modified oligonucleotide four times a week for one week, following which they were dosed with 50 mg/kg modified oligonucleotide thrice weekly until the end of the study. Animals were sacrificed and tumors were collected on day 119 post implantation. Yap1 mRNA knockdown in tumors was measured by RT-qPCR as previously described using the Human Yap1 primer-probe set RTS4814. Yap1 mRNA levels were normalized to actin-beta content, as measured by primer probe set RTS5002. Results are presented in the tables below as percent control of the amount of Yap1 mRNA relative to PBS treated animals (% control).

For “715487 (kA*kT*kT*dA*d[5mC]*dT*dT*d[5mC]*dA*dT*dA*dG*d[5mC]*kT*kT*kA) [compound 715487]”, the “Antiproliferative effect (cell proliferation, luminescence)” value (“Antiproliferative effect” for short) (SCC-4 cells; 0.04 μM) was 158 % UTC, the “Antiproliferative effect” value (SCC-4 cells; 0.2 μM) was 121 % UTC and the “Antiproliferative effect” value (SCC-4 cells; 1 μM) was 106 % UTC. For the same substance, the “Antiproliferative effect” value (SCC-4 cells; 5 μM) was 69 % UTC, the “human Yap1 mRNA expression” value (Yap1 mRNA [1]; 0.08 μM) was 70 % UTC and the “human Yap1 mRNA expression” value (Yap1 mRNA [1]; 0.4 μM) was 32 % UTC. For the same substance, the “human Yap1 mRNA expression” value (Yap1 mRNA [1]; 2 μM) was 16 % UTC, the “human Yap1 mRNA expression” value (Yap1 mRNA [1]; 10 μM) was 11 % UTC and the “human Yap1 mRNA expression” value (Yap1 mRNA [2]; 0.04 μM) was 71 % UTC. The “human Yap1 mRNA expression” value (Yap1 mRNA [2]; 0.2 μM) was 36 % UTC, the “human Yap1 mRNA expression” value (Yap1 mRNA [2]; 1 μM) was 16 % UTC and the “human Yap1 mRNA expression” value (Yap1 mRNA [2]; 5 μM) was 9 % UTC. The “Antiproliferative effect” value (UPCI:SCC090 cells; 0.04 μM) was 92 % UTC, the “Antiproliferative effect” value (UPCI:SCC090 cells; 0.2 μM) was 94 % UTC and the “Antiproliferative effect” value (UPCI:SCC090 cells; 1 μM) was 72 % UTC. For the same substance, the “Antiproliferative effect” value (UPCI:SCC090 cells; 5 μM) was 68 % UTC.
Substance “1076453 (GTAATATTGCAATCTG; 3-10-3 cEt gapmer, further chemistry not given here) [compound 1076453]” has a Kidney weight [3] of 3.2 g, a Liver weight [3] of 16 g and a Spleen weight [3] of 2.1 g. The body weight [3] was 371 g.
“958499 (ATTAGAGTATGTGGCA; 3-10-3 cEt gapmer, further chemistry not given here) [compound 958499]” showed a Kidney weight [3] of 3.1 g, a Liver weight [3] of 14 g and a Spleen weight [3] of 2.8 g. For the same substance, the body weight [3] was 333 g.
For “1198728 (TATTAGAGTATGTGGC; modified gapmer, further chemistry not given here) [compound 1198728]”, the “Yap1 mRNA levels in tumors, % control” value (Yap1 mRNA [4]) was 40 % control.
In the case of “CGCCGATAAGGTACAC (cEt gapmer, phosphorothioate backbone, further chemistry not given here) [ION 792169, reference compound]”, the “Antiproliferative effect” value (SCC-4 cells; 0.04 μM) is reported as 125 % UTC, the “Antiproliferative effect” value (SCC-4 cells; 0.2 μM) is reported as 169 % UTC and the “Antiproliferative effect” value (SCC-4 cells; 1 μM) is reported as 142 % UTC. The “Antiproliferative effect” value (SCC-4 cells; 5 μM) was 136 % UTC, the “human Yap1 mRNA expression” value (Yap1 mRNA [1]; 0.08 μM) was 87 % UTC and the “human Yap1 mRNA expression” value (Yap1 mRNA [1]; 0.4 μM) was 87 % UTC. For the same substance, the “human Yap1 mRNA expression” value (Yap1 mRNA [1]; 2 μM) was 89 % UTC, the “human Yap1 mRNA expression” value (Yap1 mRNA [1]; 10 μM) was 86 % UTC and the “Yap1 mRNA levels in tumors, % control” value (Yap1 mRNA [4]) was 74 % control. The “Yap1 mRNA levels in tumors” value (Yap1 mRNA [5]) was 90 % control, the “human Yap1 mRNA expression” value (Yap1 mRNA [2]; 0.04 μM) was 97 % UTC and the “human Yap1 mRNA expression” value (Yap1 mRNA [2]; 0.2 μM) was 104 % UTC. The “human Yap1 mRNA expression” value (Yap1 mRNA [2]; 1 μM) was 106 % UTC, the “human Yap1 mRNA expression” value (Yap1 mRNA [2]; 5 μM) was 109 % UTC and the “Antiproliferative effect” value (UPCI:SCC090 cells; 0.04 μM) was 100 % UTC. The “Antiproliferative effect” value (UPCI:SCC090 cells; 0.2 μM) was 104 % UTC, the “Antiproliferative effect” value (UPCI:SCC090 cells; 1 μM) was 99 % UTC and the “Antiproliferative effect” value (UPCI:SCC090 cells; 5 μM) was 93 % UTC.
For “1198440 (AAGTGTATGTCAGAAG; cEt, 2'-MOE, 5-methylcytosine, phosphorothioate modifications, further chemistry not given here) [compound 1198440]”, the “Antiproliferative effect” value (SCC-4 cells; 0.04 μM) was 82 % UTC, the “Antiproliferative effect” value (SCC-4 cells; 0.2 μM) was 60 % UTC and the “Antiproliferative effect” value (SCC-4 cells; 1 μM) was 21 % UTC. For the same substance, the “Antiproliferative effect” value (SCC-4 cells; 5 μM) was 11 % UTC, the “human Yap1 mRNA expression” value (Yap1 mRNA [1]; 0.08 μM) was 32 % UTC and the “human Yap1 mRNA expression” value (Yap1 mRNA [1]; 0.4 μM) was 12 % UTC. The “human Yap1 mRNA expression” value (Yap1 mRNA [1]; 2 μM) was 8 % UTC, the “human Yap1 mRNA expression” value (Yap1 mRNA [1]; 10 μM) was 7 % UTC and the “Yap1 mRNA levels in tumors, % control” value (Yap1 mRNA [4]) was 12 % control. For the same substance, the “Yap1 mRNA levels in tumors” value (Yap1 mRNA [5]) was 34 % control, the “human Yap1 mRNA expression” value (Yap1 mRNA [2]; 0.04 μM) was 40 % UTC and the “human Yap1 mRNA expression” value (Yap1 mRNA [2]; 0.2 μM) was 11 % UTC. For the same substance, the “human Yap1 mRNA expression” value (Yap1 mRNA [2]; 1 μM) was 4 % UTC, the “human Yap1 mRNA expression” value (Yap1 mRNA [2]; 5 μM) was 3 % UTC and the “Antiproliferative effect” value (UPCI:SCC090 cells; 0.04 μM) was 101 % UTC. For the same substance, the “Antiproliferative effect” value (UPCI:SCC090 cells; 0.2 μM) was 92 % UTC, the “Antiproliferative effect” value (UPCI:SCC090 cells; 1 μM) was 75 % UTC and the “Antiproliferative effect” value (UPCI:SCC090 cells; 5 μM) was 70 % UTC.
